Assay: Low thyroid symptoms / clinical status of weight loss program patients on thyroid hormone treatment
Type: in vivo, human
Procedure: The first patient example is a person, 5′2″, weight 268 lbs, body mass index (BMI) 49 (nl 19-24; overweight 25-29; obesity≧30). Baseline blood pressure was 110/74, blood sugar (BS) was 153 mg/dL 10 days after their first visit. Their medical problems at baseline included obesity, type 2 diabetes mellitus (DM2), high blood pressure (HTN), fatigue, depression, and asthma. Their medications included glipizide 10 mg daily, amitriptyline 50 mg daily, metoprolol 50 mg daily, furosemide 40 mg daily, potassium chloride, lisinopril 10 mg daily, Advair Discus 500/50 twice daily (bid), and montelukast 10 mg daily. They were started on our comprehensive program. Five months after starting their weight loss treatment, they developed symptoms of hypothyroidism with constipation and fatigue. They had lost 28 lbs by this time and was having difficulty losing more weight even though they were eating less than they were before their weight loss treatment began. At the start of treatment, their FT4 was 0.9 ng/dL (nl 0.7-1.48). At the time of their low thyroid symptoms, their FT3 was 2.9 pg/mL (nl 1.71-3.71) and their FT4 was 0.91 ng/dL (nl 0.7-1.48). They were then treated with thyroid hormone (desiccated thyroid with a ratio of T4:T3 of about 4:1) at 60 mg daily for 6 days to acclimate, then increased to 120 mg daily. […] After two years on their weight loss treatment, their weight was 231 lbs. […] We tested for rT3 at this point. Their labs on the 150 mg dose of desiccated thyroid were: rT3 394 pg/mL (nl 90-350), FT3 3.94 pg/mL (nl 1.71-3.71), and FT4 1.24 ng/dL (nl 0.7-1.48). The task of bringing down their rT3 was then addressed. Over a period of a few months, their desiccated thyroid hormone was discontinued and instead the patient was given gradually increasing doses of T3 only, starting at 20 mcg daily and gradually increasing the T3 to 60 mcg bid. Five months after starting on T3 with increasing doses, their weight had dropped to 209 lbs. Their BP was 118/66 mmHg with pulse of 74 on lisinopril 10 mg daily, metoprolol 50 mg bid, and furosemide 40 mg daily. Instead of glipizide, they were taking metformin 500 mg bid. […] Their most recent labs on 60 mcg bid of T3 were FT3 3.8 pg/mL (nl 1.71-3.71), FT4 0.64 ng/dL (nl 0.7-1.48) and rT3 137 pg/mL (nl 90-350). Four months prior to this visit their BS was 125 mg/dl.
The second patient example is a person, 5′2″, weight 150 lbs, BMI 28 (nl 18.5-24.9; overweight 25-29.9; obesity≧30), with HTN. Their blood pressure was slightly elevated at 148/85 (on lisinopril 5 mg daily). Their medical problems at baseline included history of Hashimoto's thyroiditis, borderline high TSH, elevated lipids, and HTN. Their medications were lisinopril 5 mg daily, estradiol 2 mg daily, and rofecoxib 25 mg daily for osteoarthritis of their large joints. […]

[1] = Patient Example 2, T3 only, 25 mcg bid

SMILES: N[C@@H](Cc1cc(I)c(Oc2ccc(O)c(I)c2)c(I)c1)C(=O)O [T3, (2S)-2-amino-3-[4-(4-hydroxy-3-iodo-phenoxy)-3,5-diiodo-phenyl]propanoic acid]
- clinical thyroid status (Patient Example 1, on T3 only): clinically euthyroid
- lipids [1]: improved compared to baseline
- low thyroid symptoms [1]: no longer suffered from hair loss; their bowels were normal, they felt well

— US20150320709A1, “METHODS AND COMPOSITIONS FOR FACILITATING WEIGHT LOSS BY ADMINISTRATION OF THYROID HORMONES” (priority 2011, published 2015)
